Source: patent US6514946B1, “Macrolide antibiotics and treatment and prophylaxis of pasteurellosis using the same” (Zaidan Hojin Biseibutsu Kagaku Kenkyu Kai, priority 1999, dated 2003)
In brackets after ≈: the same amount, converted by molar mass.

How the values were obtained:
[1] = system: S. aureus FDA209P; experiment: Minimum inhibition concentration (MIC), agar double dilution method; assay type: cell-based, Staphylococcus aureus; settings: Mueller hinton agar
Method: (§1) Test 1; Minimum Inhibition Concentration (MIC)
(§2) MIC was measured, based on the standard method of Japan Society of Chemotherapy, on a BHI agar medium (Brain heart-infusion agar, made by Difco Laboratories Inc.(USA)) with respect to Pasteurella and on a Mueller hinton agar medium (Mueller hinton agar, made by Difco, Laboratories Inc.(USA)) with respect to the other test bacteria in both cases according to the double dilution method.

[2] = system: S. aureus Smith (virulent strain); experiment: microbe, parasite or virus in culture; assay type: cell-based, Staphylococcus aureus; settings: S. aureus Smith (virulent strain); Mueller hinton agar
Method: as §1, §2

[3] = system: Bacillus subtilis NRRL B-558; experiment: Minimum inhibition concentration (MIC), agar double dilution method; assay type: cell-based; settings: Bacillus subtilis NRRL B-558; Mueller hinton agar
Method: as §1, §2

[4] = system: Enterobacter aerogenes ATCC13048; experiment: as above; assay type: cell-based; settings: Mueller hinton agar
Method: as §1, §2

[5] = system: Escherichia coli NIHJ; experiment: as above; assay type: cell-based; settings: Mueller hinton agar
Method: as §1, §2

[6] = system: Klebsiella pneumoniae PCI602; experiment: as above; assay type: cell-based; settings: Mueller hinton agar
Method: as §1, §2

[7] = system: Micrococcus luteus PCI1001; experiment: as above; assay type: cell-based; settings: Mueller hinton agar
Method: as §1, §2

[8] = system: Pasteurella haemolytica BBPO101 N791; experiment: as above; assay type: cell-based; settings: Pasteurella haemolytica BBPO101 N791, strain from cattle; BHI agar
Method: as §1, §2

[9] = system: Salmonella enteritidis 1891; experiment: as above; assay type: cell-based; settings: Mueller hinton agar
Method: as §1, §2

[10] = system: Serratia marcescens; experiment: as above; assay type: cell-based; settings: Mueller hinton agar
Method: as §1, §2

[11] = system: Shigella dysenteriae JS11910; experiment: as above; assay type: cell-based; settings: Shigella dysenteriae JS11910; Mueller hinton agar
Method: as §1, §2

[12] = system: Staphylococcus aureus 193; experiment: as above; assay type: cell-based; settings: Mueller hinton agar
Method: as §1, §2

[13] = system: E. coli K-12 R-5; experiment: as above; assay type: cell-based, Escherichia coli; settings: Mueller hinton agar
Method: as §1, §2

[14] = system: Past haemolytica BAPO103 S801; experiment: as above; assay type: cell-based, Pasteurella haemolytica; settings: Past haemolytica BAPO103 S801, strain from poultry; BHI agar
Method: as §1, §2

[15] = system: Past haemolytica BBPO102 N811; experiment: as above; assay type: cell-based, Pasteurella haemolytica; settings: Past haemolytica BBPO102 N811, strain from cattle; BHI agar
Method: as §1, §2

[16] = system: Past. multocida BOPO305 M-17; experiment: as above; assay type: cell-based, Pasteurella multocida; settings: Past. multocida BOPO305 M-17, strain from a sheep; BHI agar
Method: as §1, §2

[17] = system: Past. multocida BSPO302 No. 6; experiment: as above; assay type: cell-based, Pasteurella multocida; settings: Past. multocida BSPO302 No. 6, strain from a pig; BHI agar
Method: as §1, §2

[18] = system: bovine bacterial pneumonia (Mycoplasma, Ureaplasma and Pasteurella); experiment: Clinical test against bovine bacterial pneumonia; assay type: in vivo, cattle; design: Average clinical score: scale not given here
From the text: Test 5: Clinical Test Against Bovine Bacterial Pneumonia
In this test, each drug was subcutaneously administered to cattle suffering from bacterial pneumonia (infectious diseases with Mycoplasma, Ureaplasma and Pasteurella), respectively, and the clinical effect of P-MT was compared with those of tilmicosin and C-9.
Tests are made on 17 case of one to two-month-old Holstein cattle (weight 56 to 101 kg) suffering from bacterial pneumonia caused by single or mixed infection of Pasteurella, Mycoplasma, Ureaplasma and Haemophilus (6 animals for each of P-MT and C-9 and 5 animals for tilmicosin). The drug was subcutaneously administered to the animals once a day in an amount of 10 mg/kg.
Three calves showing a similar degree of symptoms at the start of the test were arranged in one group. Each subject of the same group was respectively tested with one of the above three compounds. Ailing calves were successively grouped when being available.
Clinical findings, based on the daily observation from the time of the administration through the 5th day of the trial, were scored on each item according to the criteria in the table below. The clinical efficacy of the compounds was judged on the 5th day.
As to judgment based on the clinical symptoms, cases which could be judged among each group were classified into remarkably effective (85 to 100), effective (70 to under 85), a little effective (50 to under 70) and infective (under 50) according to the following improvement rate by clinical scores, and after summing up, the following effective rate was calculated, the difference in the effective rate among the groups was determined using a statistical method, and thus effectivity was judged. [formula]

[19] = system: P. multocida; experiment: Bacteria separation test from nasal cavity swab; assay type: in vivo, cattle
[20] = system: P. haemolytica; experiment: Bacteria separation test from nasal cavity swab; assay type: in vivo, cattle
[21] = system: H. somnus; experiment: Bacteria separation test from nasal cavity swab; assay type: in vivo, cattle
[22] = system: M. bovis; assay type: in vivo, cattle; settings: nasal cavity swab, before administration (baseline)
[23] = system: M. bovirhinis; experiment: Bacteria separation test from nasal cavity swab; assay type: in vivo, cattle
[24] = system: Ureaplasma; experiment: Bacteria separation test from nasal cavity swab; assay type: in vivo, cattle
[25] = system: P. haemolytica 63-39 intraperitoneally infected mice; experiment: Antiinfective test on infected mice
[26] = system: P. haemolytica 63-39; experiment: Sensitivity (MIC), agar plate dilution method; settings: P. haemolytica 63-39; agar plate dilution, 10^6 CFU/ml
[27] = system: Proteus vulgaris OX19; experiment: Minimum inhibition concentration (MIC), agar double dilution method; assay type: cell-based; settings: Mueller hinton agar
Method: as §1, §2

[28] = system: ICR mice; experiment: Toxicity test, intravenous or subcutaneous injection; assay type: in vivo
[29] = before administration (baseline)
[30] = probit method from surviving numbers after 7 days, subcutaneous
[31] = intravenous injection, 0.25 mg/mouse
[32] = intravenous injection, 0.5 mg/mouse
[33] = intravenous injection, 1.0 mg/mouse
[34] = subcutaneous injection, 1.0 mg/mouse
[35] = subcutaneous injection, 2.0 mg/mouse
[36] = subcutaneous injection, 3.0 mg/mouse
[37] = subcutaneous injection, 4.0 mg/mouse

CC[C@H]1OC(=O)C[C@@H](O)[C@H](C)[C@@H](O[C@@H]2O[C@H](C)C(O)C(N(C)C)C2O)[C@@H](CC=O)C[C@@H](C)C(=O)/C=C/C(C)=C/[C@@H]1CN1CCCCC1 (stereo partly shown)
MIC [1]: 0.20 µg/mL (≈ 0.301 µM)
MIC [2]: 0.39 µg/mL (≈ 0.587 µM)
MIC [3]: 0.39 µg/mL (≈ 0.587 µM)
MIC [4]: 6.25 µg/mL (≈ 9.4 µM)
MIC [5]: 0.78 µg/mL (≈ 1.17 µM)
MIC [6]: 0.78 µg/mL (≈ 1.17 µM)
MIC [7]: 0.10 µg/mL (≈ 0.15 µM)
MIC [8]: 0.78 µg/mL (≈ 1.17 µM)
MIC [9]: 0.78 µg/mL (≈ 1.17 µM)
MIC [10]: 6.25 µg/mL (≈ 9.4 µM)
MIC [11]: 3.13 µg/mL (≈ 4.71 µM)
MIC [12]: 0.20 µg/mL (≈ 0.301 µM)
MIC [13]: >100 µg/mL
MIC [14]: 0.78 µg/mL (≈ 1.17 µM)
MIC [15]: 0.78 µg/mL (≈ 1.17 µM)
MIC [16]: 0.39 µg/mL (≈ 0.587 µM)
MIC [17]: 0.39 µg/mL (≈ 0.587 µM)
Average clinical score ([18]; 1 day after completion of administration, cattle, 10 mg/kg subcutaneous): 3.3
Average clinical score ([18]; 2 days after completion of administration): 2.5
Average clinical score ([18]; 3 days after completion of administration): 2.0
Average clinical score ([18]; 4 days after completion of administration): 1.8
Effective rate (%) in clinical effect ([18]; (remarkably effective + effective case number)/test case number × 100): 50%
Average symptomatic improvement rate (%) ([18]; (score before − score after administration)/score before × 100): 75.9%
Average clinical score ([18]; at administration (baseline), cattle, 10 mg/kg subcutaneous): 7.5
A little effective (%) (case number) ([18]; improvement rate 50 to under 70): 50 (3) % (case number)
Effective (%) (case number) ([18]; improvement rate 70 to under 85): 33 (2) % (case number)
Remarkably effective (%) (case number) ([18]; improvement rate 85 to 100): 17 (1) % (case number)
Ineffective (%) (case number) ([18]; improvement rate under 50): 0 (0) % (case number)
Separation rate (%) at completion (number of animal) ([19]; at completion): 50 (3/6) % (number of animal)
Separation rate (%) before administration (number of animal) [19, 29]: 100 (6/6) % (number of animal)
Separation rate (%) at completion (number of animal) ([20]; at completion): 17 (1/6) % (number of animal)
Separation rate (%) before administration (number of animal) [20, 29]: 17 (1/6) % (number of animal)
Separation rate (%) at completion (number of animal) ([21]; at completion): 0 (0/6) % (number of animal)
Separation rate (%) before administration (number of animal) [21, 29]: 0 (0/6) % (number of animal)
Separation rate (%) before administration (number of animal) [22]: 33 (2/6) % (number of animal)
Separation rate (%) at completion (number of animal) ([23]; at completion): 33 (2/6) % (number of animal)
Separation rate (%) before administration (number of animal) [23, 29]: 67 (4/6) % (number of animal)
Separation rate (%) at completion (number of animal) ([24]; at completion): 33 (2/6) % (number of animal)
Separation rate (%) before administration (number of animal) [24, 29]: 100 (6/6) % (number of animal)
Surviving number after 7 days/test number ([25]; dose 1 mg/kg subcutaneous one hour after infection): 0/10
Surviving number after 7 days/test number ([25]; dose 5 mg/kg subcutaneous one hour after infection): 1/10
Surviving number after 7 days/test number ([25]; dose 10 mg/kg subcutaneous one hour after infection): 3/10
Surviving number after 7 days/test number ([25]; dose 20 mg/kg subcutaneous one hour after infection): 10/10
Surviving number after 7 days/test number ([25]; dose 30 mg/kg subcutaneous one hour after infection): 10/10
ED50 (95% confidence limit) [25, 30]: 10.3 mg/kg (7.7-13.4)
ED90 [25, 30]: 18.3 mg/kg
MIC [26]: 1.56 µg/mL (≈ 2.35 µM)

CC[C@H]1OC(=O)C[C@@H](O)[C@H](C)[C@@H](O[C@@H]2O[C@H](C)C(O)C(N(C)C)C2O)[C@@H](CCN2CCCCCCC2)C[C@@H](C)C(=O)/C=C/C(C)=C/[C@@H]1CN1CCCCCCC1 (stereo partly shown) [Compound C-8]
MIC [1]: 0.78 µg/mL (≈ 0.987 µM)
MIC [2]: 1.56 µg/mL (≈ 1.97 µM)
MIC [3]: 3.13 µg/mL (≈ 3.96 µM)
MIC [4]: 6.25 µg/mL (≈ 7.91 µM)
MIC [5]: 1.56 µg/mL (≈ 1.97 µM)
MIC [6]: 3.13 µg/mL (≈ 3.96 µM)
MIC [7]: 0.20 µg/mL (≈ 0.253 µM)
MIC [8]: 0.20 µg/mL (≈ 0.253 µM)
MIC [27]: 6.25 µg/mL (≈ 7.91 µM)
MIC [9]: 0.78 µg/mL (≈ 0.987 µM)
MIC [10]: 12.5 µg/mL (≈ 15.8 µM)
MIC [11]: 0.78 µg/mL (≈ 0.987 µM)
MIC [12]: 0.78 µg/mL (≈ 0.987 µM)
MIC [13]: 1.56 µg/mL (≈ 1.97 µM)
MIC [14]: 1.56 µg/mL (≈ 1.97 µM)
MIC [15]: 0.39 µg/mL (≈ 0.494 µM)
MIC [16]: 0.78 µg/mL (≈ 0.987 µM)
MIC [17]: 0.39 µg/mL (≈ 0.494 µM)
Dissection finding [28, 31]: no abnormal finding
Surviving number [28, 31]: 3/3
Dissection finding [28, 32]: no abnormal finding
Surviving number [28, 32]: 3/3
Dissection finding [28, 33]: no abnormal finding
Surviving number [28, 33]: 3/3
Surviving number ([28]; intravenous injection, 1.5 mg/mouse): 0/1 (immediate death)
Surviving number ([28]; intravenous injection, 2.0 mg/mouse): 0/3 (immediate death)
Surviving number ([28]; intravenous injection, 4.0 mg/mouse): 0/1 (immediate death)
Dissection finding [28, 34]: Sores and alopecia at the administration part
Surviving number / number of used animals [28, 34]: 2/2
Dissection finding [28, 35]: Sores and alopecia at the administration part
Surviving number / number of used animals [28, 35]: 2/2
Dissection finding [28, 36]: Sores and alopecia at the administration part
Surviving number / number of used animals [28, 36]: 2/2
Dissection finding [28, 37]: Sores and alopecia at the administration part
Surviving number / number of used animals [28, 37]: 2/2

CC[C@H]1OC(=O)C[C@@H](O)[C@H](C)[C@@H](O[C@@H]2O[C@H](C)C(O)C(N(C)C)C2O)[C@@H](CCN(C)C)C[C@@H](C)C(=O)/C=C/C(C)=C/[C@@H]1CN(C)C (stereo partly shown) [Compound C-1]
MIC [1]: 50 µg/mL (≈ 76.5 µM)
MIC [2]: 100 µg/mL (≈ 153 µM)
MIC [3]: 100 µg/mL (≈ 153 µM)
MIC [4]: 50 µg/mL (≈ 76.5 µM)
MIC [5]: 12.5 µg/mL (≈ 19.1 µM)
MIC [6]: 25 µg/mL (≈ 38.2 µM)
MIC [7]: 3.13 µg/mL (≈ 4.79 µM)
MIC [8]: 6.25 µg/mL (≈ 9.56 µM)
MIC [27]: 100 µg/mL (≈ 153 µM)
MIC [9]: 6.25 µg/mL (≈ 9.56 µM)
MIC [10]: >100 µg/mL
MIC [11]: 50 µg/mL (≈ 76.5 µM)
MIC [12]: 50 µg/mL (≈ 76.5 µM)
MIC [13]: >100 µg/mL
MIC [14]: 50 µg/mL (≈ 76.5 µM)
MIC [15]: 6.25 µg/mL (≈ 9.56 µM)
MIC [16]: 6.25 µg/mL (≈ 9.56 µM)
MIC [17]: 12.5 µg/mL (≈ 19.1 µM)
